Numbered stars: 1 amine (or outer) side, 2 acyl side, 3 side chain; on linkers, the order of the positions; unused ones are H or OH. Square brackets hold non-standard residues; d marks the D form. Side chains are listed from the residue outwards. Peptide text beside a SMILES is read from it. * marks the point of attachment. C18 diacid = O=C(O)CCCCCCCCCCCCCCCCC(=O)*; γGlu = O=C(O)[C@H](CCC(=O)[*:2])N[*:1]; AEEA = NCCOCCOCC(=O)O; Aib = CC(C)(N)C(=O)O

T1 sequence (P43220 24-463): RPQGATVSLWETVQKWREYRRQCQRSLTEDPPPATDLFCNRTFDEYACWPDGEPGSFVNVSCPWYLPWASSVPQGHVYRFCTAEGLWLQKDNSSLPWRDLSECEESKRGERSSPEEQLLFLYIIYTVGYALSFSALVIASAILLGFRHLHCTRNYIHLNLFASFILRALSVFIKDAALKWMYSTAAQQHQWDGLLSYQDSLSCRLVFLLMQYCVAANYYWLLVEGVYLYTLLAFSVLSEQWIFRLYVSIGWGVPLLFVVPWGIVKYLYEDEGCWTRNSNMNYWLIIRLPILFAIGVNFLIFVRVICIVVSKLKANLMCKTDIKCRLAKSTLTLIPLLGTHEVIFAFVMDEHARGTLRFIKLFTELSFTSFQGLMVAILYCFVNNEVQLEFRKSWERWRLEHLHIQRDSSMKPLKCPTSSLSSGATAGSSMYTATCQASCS

The assay concerns the target T1, human GLP-1 receptor (Homo sapiens, UniProt P43220).
T1 construct: expressed in transfected cells; host or cells: BHK cells (parent BHKTS13), clone FCW467-12A/KZ10-1, with CRE luciferase
Nature of the assay: GLP-1 receptor potency, CRE luciferase reporter gene assay in BHK cells. The format is cell-based. To be noted: BHK cells expressing human GLP-1 receptor, read-out: EC50 GLP-1R. As for the experimental part:
The purpose of this example was to test the potency, of the glucagon derivatives of the invention, in vitro. The in vitro potency is the measure of human GLP-1 receptor or glucagon receptor activation, respectively, in a whole cell assay.
In vitro potency was determined by measuring the response of human GLP-1 or glucagon receptor, respectively, in a reporter gene assay. The assay was performed in a stably transfected BHK cell line that expresses either the human GLP-1 receptor or the human glucagon receptor and contains the DNA for the cAMP response element (CRE) coupled to a promoter and the gene for firefly luciferase (CRE luciferase). […] When assay incubation was completed, the luciferase substrate (luciferin) was added and the enzyme converted luciferin to oxyluciferin and produces bioluminescence. The luminescence was measured as the readout for the assay.
The cells used in this assay (clone FCW467-12A/KZ10-1) were BHK cells with BHKTS13 as a parent cell line. The cells were derived from a clone (FCW467-12A) that expresses the human GLP-1 receptor and were established by further transfection with
CRE luciferase to obtain the current clone.
The cells were cultured at 5% CO2 in DMEM medium with 10% FBS, 1×GlutaMAX, 1 mg/ml G418, 240 nM MTX (methotrexate) and 1% pen/strep (penicillin/streptomycin). They were aliquoted and stored in liquid nitrogen. Before each assay, an aliquot was taken up and washed three times in PBS before being suspended at the desired concentration in assay medium. For 96-well plates the suspension was made to give a final concentration of 5×10EE3 cells/well.
The following chemicals were used in the assay: Pluronic F-68 (10%) (Gibco 2404), ovalbumin (Sigma A5503), DMEM w/o phenol red (Gibco 11880-028), 1 M Hepes (Gibco 15630), Glutamax 100× (Gibco 35050) and steadylite plus (PerkinElmer 6016757).
Assay Medium consisted of DMEM w/o phenol red, 10 mM Hepes, lx GlutaMAX, 2% Ovalbumin and 0.2% Pluronic F-68.
Cell stocks were thawed in a 37° C. water bath. Cells were washed three times in PBS. The cells were counted and adjusted to 5×10EE3 cells/50 μl (1×10EE5 cells/ml) in Assay Medium. A 50 μl aliquot of cells was transferred to each well in the assay plate.
Stocks of the test compounds and reference compounds were diluted to a concentration of […] in Assay Medium. Compounds were diluted 10-fold to give the following concentrations: 2×10EE-6 M, 2×10EE-7 M, 2×10EE-8 M; 2×10EE-9 M, 2×10EE-10 M, 2×10EE-11 M, 2×10EE-12 M and 2×10EE-13 M. For each compound a blank assay medium control was also included.
A 50 μl aliquot of compound or blank was transferred from the dilution plate to the assay plate. Compounds were tested at the following final concentrations: 1×10EE-6 M, 1×10EE-7 M, 1×10EE-8 M; 1×10EE-9 M, 1×10EE-10 M, 1×10EE-11 M and 1×10EE-12 M and 1×10EE-13 M.
The assay plate was incubated for 3 h in a 5% CO2 incubator at 37° C. The assay plate was removed from the incubator and allowed to stand at room temperature for 15 min. A 100 μl aliquot of steadylite plus reagent was added to each well of the assay plate (reagent is light sensitive). Each assay plate was covered with aluminum foil to protect it from light and shaken for 30 min at room temperature. Each assay plate was read in a Perkin Elmer TopCount NXT instrument.
The data from the TopCount instrument was transferred to GraphPad Prism software. The software performed a non-linear regression (log(agonist) vs response-Variable slope (four parameter)). EC50 values were calculated by the software and reported in pM.
Regarding `CC(C)C[C@H](NC(=O)[C@H](CC(C)C)NC(=O)[C@H](Cc1c[nH]c2ccccc12)NC(=O)[C@H](CCC(N)=O)NC(=O)[C@@H](NC(=O)[C@H](Cc1ccccc1)NC(=O)[C@H](CC(=O)O)NC(=O)[C@H](CCCNC(=N)N)NC(=O)[C@H](C)NC(=O)[C@H](CCCNC(=N)N)NC(=O)[C@H](CCCNC(=N)N)NC(=O)[C@H](CO)NC(=O)[C@H](CC(=O)O)NC(=O)[C@H](CC(C)C)NC(=O)[C@H](Cc1ccc(O)cc1)NC(=O)[C@H](CCCCN)NC(=O)[C@H](CO)NC(=O)[C@H](CC(C)C)NC(=O)[C@H](CC(=O)O)NC(=O)[C@H](CO)NC(=O)[C@@H](NC(=O)[C@H](Cc1ccccc1)NC(=O)[C@@H](NC(=O)CNC(=O)[C@H](CCC(N)=O)NC(=O)C(C)(C)NC(=O)[C@@H](N)Cc1c[nH]cn1)[C@@H](C)O)[C@@H](C)O)C(C)C)C(=O)N[C@@H](CO)C(=O)N[C@@H](CCCCNC(=O)CC[C@H](NC(=O)CC[C@H](NC(=O)COCCOCCNC(=O)COCCOCCNC(=O)CC[C@H](NC(=O)CCCCCCCCCCCCCCCCC(=O)O)C(=O)O)C(=O)O)C(=O)O)C(N)=O` [Example 5, N^ε29-[(4S)-4-carboxy-4-[[(4S)-4-carboxy-4-[[2-[2-[2-[[2-[2-[2-[[(4S)-4-carboxy-4-(17-carboxyheptadecanoylamino)butanoyl]amino]ethoxy]ethoxy]acetyl]amino]ethoxy]ethoxy]acetyl]amino]butanoyl]amino]butanoyl]-[Aib2,Leu10,Arg20,Leu27,Ser28,Lys29]-Glucagon amide] (H-H[Aib]QGTFTSDLSKYLDSRRARDFVQWLLSK([γGlu-γGlu-AEEA-AEEA-γGlu-C18 diacid])-NH2; N-terminus assumed), the EC50 turned out to be 5 pM.
Turning to `CC(C)C[C@H](NC(=O)[C@H](Cc1ccc(O)cc1)NC(=O)[C@H](CCCCN)NC(=O)[C@H](CO)NC(=O)[C@H](CC(C)C)NC(=O)[C@H](CC(=O)O)NC(=O)[C@H](CO)NC(=O)[C@@H](NC(=O)[C@H](Cc1ccccc1)NC(=O)[C@@H](NC(=O)CNC(=O)[C@H](CCC(N)=O)NC(=O)C(C)(C)NC(=O)[C@@H](N)Cc1c[nH]cn1)[C@@H](C)O)[C@@H](C)O)C(=O)N[C@@H](CC(=O)O)C(=O)N[C@@H](CO)C(=O)N[C@@H](CCCNC(=N)N)C(=O)N[C@@H](CCCNC(=N)N)C(=O)N[C@@H](C)C(=O)N[C@@H](CCCNC(=N)N)C(=O)N[C@@H](CC(=O)O)C(=O)N[C@@H](Cc1ccccc1)C(=O)N[C@H](C(=O)N[C@@H](CCCCNC(=O)CC[C@H](NC(=O)CC[C@H](NC(=O)COCCOCCNC(=O)COCCOCCNC(=O)CC[C@H](NC(=O)CCCCCCCCCCCCCCCCC(=O)O)C(=O)O)C(=O)O)C(=O)O)C(=O)N[C@@H](Cc1c[nH]c2ccccc12)C(=O)N[C@@H](CC(C)C)C(=O)N[C@@H](CC(C)C)C(=O)N[C@@H](CO)C(=O)N[C@H](C(N)=O)[C@@H](C)O)C(C)C` [Example 3, N^ε24-[(4S)-4-carboxy-4-[[(4S)-4-carboxy-4-[[2-[2-[2-[[2-[2-[2-[[(4S)-4-carboxy-4-(17-carboxyheptadecanoylamino)butanoyl]amino]ethoxy]ethoxy]acetyl]amino]ethoxy]ethoxy]acetyl]amino]butanoyl]amino]butanoyl]-[Aib2,Leu10,Arg20,Lys24,Leu27,Ser28]-Glucagon amide] (H-H[Aib]QGTFTSDLSKYLDSRRARDFVK([γGlu-γGlu-AEEA-AEEA-γGlu-C18 diacid])WLLST-NH2; N-terminus assumed), the concentration giving a half-maximal response (EC50) stood at 6 pM.
Then `CC(C)C[C@H](NC(=O)[C@H](CC(C)C)NC(=O)[C@H](Cc1c[nH]c2ccccc12)NC(=O)[C@H](CCC(N)=O)NC(=O)[C@@H](NC(=O)[C@H](Cc1ccccc1)NC(=O)[C@H](CC(=O)O)NC(=O)[C@H](CCCCN)NC(=O)[C@H](C)NC(=O)[C@H](CCCNC(=N)N)NC(=O)[C@H](CCCNC(=N)N)NC(=O)[C@H](CCC(=O)O)NC(=O)[C@H](CC(=O)O)NC(=O)[C@H](CC(C)C)NC(=O)[C@H](Cc1ccc(O)cc1)NC(=O)[C@H](CCCCN)NC(=O)[C@H](CO)NC(=O)[C@H](CC(C)C)NC(=O)[C@H](CC(=O)O)NC(=O)[C@H](CO)NC(=O)[C@@H](NC(=O)[C@H](Cc1ccccc1)NC(=O)[C@@H](NC(=O)CNC(=O)[C@H](CCC(N)=O)NC(=O)C(C)(C)NC(=O)[C@@H](N)Cc1c[nH]cn1)[C@@H](C)O)[C@@H](C)O)C(C)C)C(=O)N[C@@H](CO)C(=O)N[C@@H](CCCCNC(=O)CC[C@H](NC(=O)CC[C@H](NC(=O)COCCOCCNC(=O)COCCOCCNC(=O)CC[C@H](NC(=O)CCCCCCCCCCCCCCCCC(=O)O)C(=O)O)C(=O)O)C(=O)O)C(N)=O` [Example 13, N^ε29-[(4S)-4-carboxy-4-[[(4S)-4-carboxy-4-[[2-[2-[2-[[2-[2-[2-[[(4S)-4-carboxy-4-(17-carboxyheptadecanoylamino)butanoyl]amino]ethoxy]ethoxy]acetyl]amino]ethoxy]ethoxy]acetyl]amino]butanoyl]amino]butanoyl]-[Aib2,Leu10,Glu16,Lys20,Leu27,Ser28,Lys29]-Glucagon amide] (H-H[Aib]QGTFTSDLSKYLDERRAKDFVQWLLSK([γGlu-γGlu-AEEA-AEEA-γGlu-C18 diacid])-NH2; N-terminus assumed), with 6 pM; and `CC(C)C[C@H](NC(=O)[C@H](CC(C)C)NC(=O)[C@H](Cc1c[nH]c2ccccc12)NC(=O)[C@H](CCCNC(=N)N)NC(=O)[C@@H](NC(=O)[C@H](Cc1ccccc1)NC(=O)[C@H](CC(=O)O)NC(=O)[C@H](CCC(N)=O)NC(=O)[C@H](C)NC(=O)[C@H](CCCNC(=N)N)NC(=O)[C@H](CCCNC(=N)N)NC(=O)[C@@H](NC(=O)[C@H](CC(=O)O)NC(=O)[C@H](CC(C)C)NC(=O)[C@H](Cc1ccc(O)cc1)NC(=O)[C@H](CCCCN)NC(=O)[C@H](CO)NC(=O)[C@H](CC(C)C)NC(=O)[C@H](CC(=O)O)NC(=O)[C@H](CO)NC(=O)[C@@H](NC(=O)[C@H](Cc1ccccc1)NC(=O)[C@@H](NC(=O)CNC(=O)[C@H](CCC(N)=O)NC(=O)C(C)(C)NC(=O)[C@@H](N)Cc1c[nH]cn1)[C@@H](C)O)[C@@H](C)O)[C@@H](C)O)C(C)C)C(=O)N[C@@H](CO)C(=O)N[C@@H](CCCCNC(=O)CC[C@H](NC(=O)CC[C@H](NC(=O)COCCOCCNC(=O)COCCOCCNC(=O)CC[C@H](NC(=O)CCCCCCCCCCCCCCCCC(=O)O)C(=O)O)C(=O)O)C(=O)O)C(N)=O` [Example 15, N^ε29-[(4S)-4-carboxy-4-[[(4S)-4-carboxy-4-[[2-[2-[2-[[2-[2-[2-[[(4S)-4-carboxy-4-(17-carboxyheptadecanoylamino)butanoyl]amino]ethoxy]ethoxy]acetyl]amino]ethoxy]ethoxy]acetyl]amino]butanoyl]amino]butanoyl]-[Aib2,Leu10,Thr16,Arg24,Leu27,Ser28,Lys29]-Glucagon amide] (H-H[Aib]QGTFTSDLSKYLDTRRAQDFVRWLLSK([γGlu-γGlu-AEEA-AEEA-γGlu-C18 diacid])-NH2; N-terminus assumed), with 20 pM.

(Values after patent US9474790B2, “Stable, protracted GLP-1/glucagon receptor co-agonists for medical use” (Novo Nordisk A/S, priority 2013, dated 2016).)
